Test results from patent EP1941863A2, “External preparation composition” (Lion Corporation, priority 2002, dated 2004).
Converted amounts (≈) assume the structure as drawn.

Tests used:
guinea pig skin = assay: continuous irritative test of guinea pig skin (Draize method); assay type: in vivo, guinea pig (Hartley series); design: key: sum of erythema (0-4) + edema (0-4) scores; max 8
Protocol: Each left and right two spots (4 spots/head) of applying parts having a frame of 2 cm x 2 cm were provided on the back of a shaved guinea pig (Hartley series, 7 weeks of age, female, N = 10), and each 50 µL of an ethanol/propylene glycol (7 : 3) solution containing 0.5 % of the respective acyl glucosamine derivatives shown in the following Table 1 was applied once a day on the respective frames.
A skin irritative score after application for 3 days straight was evaluated according to the following evaluation criteria (Draize method). The above irritative score was shown by the total points (full marks: 8 points) of erythema and edema.
• Erythema: • Evaluation point • 0: no erythema • 1: very weak erythema • 2: clear erythema • 3: middle to strong erythema • 4: very strong erythema to crust
• Evaluation point • 0: no edema • 1: very slight edema formation • 2: slight edema formation • 3: middle edema formation • 4: strong edema formation

[1] = solubility in the ethanol/propylene glycol (7 : 3) solvent (Japanese Pharmacopoeia criteria); assay type: physicochemical; conditions: organic solvent or mixture, 20°C, within 30 minutes, amount of solvent for 1 g or 1 ml of solute
[2] = test system: skin roughness in the inside of a forearm formed with 10 % SDS solution; assay: skin roughness-improving test (SDS-induced roughness, stratum corneum conductance); assay type: in vivo, human being; conditions: hydrophilic ointment with 0.05 %, twice a day, 3 days later; conductance relative to ointment with no tested substance = 100
Protocol: The skin roughness-improving degree observed 3 days later after application was evaluated using a change in a stratum corneum water content as an index. The stratum corneum water content is measured in terms of a conductance (µS). […] Skin roughness-improving rate (%) = [(conductance observed when applying the ointment blended with the tested substance)/(conductance observed when applying the ointment blended with no tested substance)] × 100 [formula]

[3] = test system: pigmentation on the backs of color guinea pigs irradiated with UV rays; assay: whitening evaluation on UV-induced pigmentation; assay type: in vivo; conditions: 30 µL of 0.05 % in ethanol/propylene glycol (7 : 3), once a day, five times a week, 4 weeks; visual change in pigmentation
From the text: Back body hair of color guinea pigs were shaved by means of a hair clipper and a shaver, and they were irradiated with UV rays once a day, 4 times a week and 8 times in total, whereby 4 parts of pigmentation having an area of about 2.25 cm^2 were formed on the backs of the respective guinea pigs.

[4] = test system: wrinkles of the back skin of hairless mice irradiated with UVB; assay: wrinkle-improving test in UVB-irradiated hairless mice; assay type: in vivo, hairless mice (hos: HR-1); conditions: 100 µL of 0.05 % in ethanol/propylene glycol (7 : 3), once a day, five times a week, 8 weeks, after 10 weeks UVB 50 mJ/cm^2; visual score relative to control group
Protocol: Evaluation point 1: all fine striations along the spine are not observed; a few shallow and coarse wrinkles run perpendicularly to the head-to-tail direction; and the striations appear or disappear with the motion of the mouse. […] The respective bodies were evaluated by an evaluation point of a 0.5 unit to calculate an average point for the respective groups, and the wrinkle-improving rate was calculated for the respective groups according to the following equation (II). Wrinkle-improving rate (%) = [(average value of the control group-average value of a glucosamine derivative-applied group)/(average value of the control group)] × 100 [formula]

[5] = test system: texture of the back skin of hairless mice irradiated with UVB; assay: coarse texture-improving test in UVB-irradiated hairless mice (skin replica); assay type: in vivo, hairless mice (hos: HR-1); conditions: 100 µL of 0.05 % in ethanol/propylene glycol (7 : 3), five times a week, 4 weeks, after 6 weeks UVB 40 mJ/cm^2; texture intersection points relative to start of test; control 24
From the text: The enlarged photographs of the respective replicas were taken through a macro lens (magnification: four times), and the photographs were used to evaluate "coarsening of the texture". The coarseness of the texture was defined by a "number of texture intersection point", wherein a point in which three or more sulci cutis are joined is counted as one intersection point, and the number of the texture intersection points present in a square of 1 cm x 1 cm was counted on the replica photograph. An average point for the respective groups was calculated, and the texture-improving rate was calculated according to the following equation (III). Table 4. Texture-improving rate (%) = [(number of texture intersection point after irradiating with UV or after application)/(number of texture intersection point at the time of starting the test)] × 100 [formula]

acnes of acne patients = assay: acne-improvement evaluation with an essence for acne; assay type: in vivo; conditions: essence with 0.05 %, a month later; for Evaluation ×: number of subjects rated × : worsened; for Evaluation Δ: number of subjects rated Δ : no change; for Evaluation ⊚: number of subjects rated ⊚ : notably improved, several times a day; for Evaluation ○: number of subjects rated ○ : improved; for Acne treating effect: subjects rated ○ or ⊚
Protocol: Prepared was an essence for acne shown in the following composition example in which 0.05 % of various acyl glucosamine derivatives shown in the following Table 6 was blended. An essence which was not blended with an acyl glucosamine derivative was prepared as a control.

[6] = Table 2, by stereoisomer ratio, 0.5 % in ethanol/propylene glycol (7 : 3) once a day, 3 days straight, full marks 8
[7] = Table 1, 50 µL of 0.5 % in ethanol/propylene glycol (7 : 3) once a day, after 3 days straight, total points of erythema and edema, full marks 8, N = 10

Row | solubility at 0.5 h [1] [µg/mL] | Compound | Draize score (guinea pig skin; [6]) | Draize score (guinea pig skin; [7]) | Skin roughness-improving rate [2] [%] | Whitening-improving effect [3] | Wrinkle-improving rate [4] [%] | Texture-improving rate [5] [%] | Evaluation × (acnes of acne patients) | Evaluation Δ (acnes of acne patients) | Evaluation ⊚ (acnes of acne patients) | Evaluation ○ (acnes of acne patients) | Acne treating effect (acnes of acne patients) [percentage] | Draize score (guinea pig skin; guinea pig, in vivo)
1 |  | 1,3,4,6-tetra-O-acetyl-N-retinoyl-D-glucosamine | 0.0 |  |  |  |  |  |  |  |  |  |  | 
2 | 1000 to 10000 (≈ 1.59 to 15.9 mM) | CC(=O)OC[C@H]1OC(OC(C)=O)[C@H](NC(=O)/C=C(C)/C=C/C=C(C)/C=C/C2=C(C)CCCC2(C)C)[C@@H](OC(C)=O)[C@@H]1OC(C)=O (single isomer, unassigned) [1,3,4,6-tetra-O-acetyl-N-retinoyl-D-glucosamine] | 0.0 |  |  |  |  |  |  |  |  |  |  | 
3 |  | CC(=O)OC[C@H]1OC(OC(C)=O)[C@H](NC(=O)/C=C(C)/C=C/C=C(C)/C=C/C2=C(C)CCCC2(C)C)[C@@H](OC(C)=O)[C@@H]1OC(C)=O (stereo partly drawn) [1,3,4,6-tetra-O-acetyl-N-retinoyl-D-glucosamine] |  | 0.0 |  |  |  |  |  |  |  |  |  | 
4 |  | CCCCCCCCCCCCOC(=O)N[C@H]1C(O)O[C@H](CO)[C@@H](O)[C@@H]1O (stereo partly drawn) [N-dodecyloxycarbonyl-D-glucosamine] |  |  | 183 | +++ |  |  |  |  |  |  |  | 
5 |  | CC(C)CCCCCCCCCCCCCCC(=O)N[C@H]1C(O)O[C@H](CO)[C@@H](O)[C@@H]1O (stereo partly drawn) [N-isostearoyl-D-glucosamine] |  | 0.1 | 136 | + | 80 | 72 | 0 | 2 | 0 | 3 | 60 | 
6 |  | CCCCCCCCCCCC(=O)N[C@H]1C(O)O[C@H](CO)[C@@H](O)[C@@H]1O (stereo partly drawn) [N-lauroyl-D-glucosamine] |  | 0.1 | 114 | + | 78 | 87 | 1 | 1 | 0 | 1 | 33 | 
7 |  | CCCCC/C=C\C/C=C\CCCCCCCC(=O)N[C@H]1C(O)O[C@H](CO)[C@@H](O)[C@@H]1O (stereo partly drawn) [N-linoleoyl-D-glucosamine] |  | 0.3 | 115 | ++ | 62 | 58 | 1 | 3 | 0 | 1 | 20 | 
8 |  | CCCCCCCC/C=C\CCCCCCCC(=O)N[C@H]1C(O)O[C@H](CO)[C@@H](O)[C@@H]1O (stereo partly drawn) [N-oleoyl-D-glucosamine] |  | 0.2 | 114 | +++ | 65 | 59 | 0 | 2 | 0 | 3 | 60 | 
9 | 1000 to 10000 (≈ 2.17 to 21.7 mM) | CC1=C(/C=C/C(C)=C/C=C/C(C)=C/C(=O)N[C@H]2C(O)O[C@H](CO)[C@@H](O)[C@@H]2O)C(C)(C)CCC1 [N-retinoyl-D-glucosamine (cis isomer/trans isomer = 0/100), N-retinoyl-D-glucosamine] | 0.0 |  |  |  |  |  |  |  |  |  |  | 
10 |  | CC1=C(/C=C/C(C)=C/C=C/C(C)=C/C(=O)O)C(C)(C)CCC1 [Retinoic acid, reference compound] |  | 8.0 |  |  |  |  |  |  |  |  |  | 
11 |  | N-POE(2)hexadecyletheroxycarbonyl-D-glucosamine |  |  | 139 | ++ | 72 | 89 | 0 | 2 | 0 | 3 | 60 | 0.1
12 |  | N-POE(5)octadecyletheroxycarbonyl-D-glucosamine |  |  | 128 | ++ | 73 | 92 | 0 | 3 | 0 | 2 | 40 | 0.2
13 |  | N-POE(10)docosyletheroxycarbonyl-D-glucosamine |  |  | 138 | ++ | 82 | 88 | 0 | 3 | 0 | 2 | 40 | 0.1
14 |  | N-retinoyl-D-glucosamine |  |  | 127 | +++ | 89 | 75 | 0 | 0 | 4 | 2 | 100 | 
15 |  | N-retinoyl-D-glucosamine [N-retinoyl-D-glucosamine (9-cis isomer/13-cis isomer/trans i] | 0.1 | 0.1 |  |  |  |  |  |  |  |  |  | 
16 |  | N-retinoyl-D-glucosamine [N-retinoyl-D-glucosamine (9-cis isomer/trans isomer = 0.5/99.5)] | 0.1 |  |  |  |  |  |  |  |  |  |  | 
17 |  | N-retinoyl-D-glucosamine [N-retinoyl-D-glucosamine (13-cis isomer/trans isomer = 0.5/99.5)] | 0.0 |  |  |  |  |  |  |  |  |  |  | 
